The text below walks through data of patent US6391284B1, “Nonalcoholic pharmaceutical preparations from formulations including alcohol and process for the preparation thereof” (priority 2001, dated 2002).

The data set can be described thus: Solubility in water. It is filed as physicochemical.

As to `CC1=C(/C=C/C(C)=C/C=C/C(C)=C\C(=O)O)C(C)(C)CCC1` [cis-retinoic acid], the water solubility result was “extremely water insoluble”.
